Source: patent US20230293630A1, “Coronavirus T Cell Epitopes and Uses Thereof” (priority 2020, published 2023)

Tested on: SARS-CoV-2-specific CD4+ T cells (OX40+CD137+) in PBMC
Type: cell-based, human
Details: not given

Sequence | Frequency of response (%) | Magnitude by # of responding donors | Sum of response
FTINCQEPKLGSLVV | 27 | 167 | 502
AGNGGDAALALLLLD | 21 | 416 | 1249

Same assay, conditions: CD4+ T cell epitopes identified by AIM assay; percent of tested donors responding

Sequence | Frequency of response (%)
SNFRVQPTESIVRFP | 9
SLLIVNNATNVVIKV | 9
CTFEYVSQPFLMDLE | 64
GINASVVNIQKEIDR | 8

Same assay, conditions: CD4+ T cell epitopes identified by AIM assay; share of donors responding

Sequence | Frequency of response (%)
LIRQGTDYKHWPQIA | 15
ARDLICAQKFNGLTV | 8
SASFSTFKCYGVSPT | 8
FSNSGSDVLYQPPQT | 8
PLIELCVDEAGSKSP | 18
NVLFSTVFPPTSFGP | 7
TNSRIKASMPTTIAK | 8
LGRCDIKDLPKEITV | 25
IGNYTVSCLPFTINC | 45
VTQNVLYENQKLIAN | 14
KLNDLCFTNVYADSF | 8
VIRGDEVRQIAPGQT | 9
SIVAGGIVAIVVTCL | 9
RVAGDSGFAAYSRYR | 15
VWHVNNATNKATYKP | 8
TQAFGRRGPEQTQGN | 8
GGDGKMKDLSPRWYF | 15
QDALFAYTKRNVIPT | 6
LMDLEGKQGNFKNLR | 36
QEPKLGSLVVRCSFY | 9
EHVTFFIYNKIVDEP | 14
QELGKYEQYIKWPWY | 8
AENSVAYSNNSIAIP | 17
TVTLLPAADLDDFSK | 7
YRINWITGGIAIAMA | 58
EFVFKNIDGYFKIYS | 18
PVYSFLPGVYSVIYL | 8

Sequence | Frequency of response (%)
LPQGFSALEPLVDLP | 18
GKGQQQQGQTVTKKS | 7
LPPLLTDEMIAQYTS | 9
RYLALYNKYKYFSGA | 15
NTVKSVGKFCLEASF | 8
RFYFYTSKTTVASLI | 8
KNTQEVFAQVKQIYK | 8
TITSGWTFGAGAALQ | 9
YPKCDRAMPNMLRIM | 7
VTKNSKVQIGEYTFE | 8
GSLVVRCSFYEDFLE | 27
AIKLDDKDPNFKDQV | 8
GAVILRGHLRIAGHH | 8
SIAIPTNFTISVTTE | 8
PQNQRNAPRITFGGP | 6
RPLLESELVIGAVIL | 8
YDANYFLCWHTNCYD | 7
YLTFYLTNDVSFLAH | 17
TRRIRGGDGKMKDLS | 8
FVSLAIDAYPLTKHP | 14
WPQIAQFAPSASAFF | 33
LLFNKVTLADAGFIK | 8
IQYIDIGNYTVSCLP | 9
HWFVTQRNFYEPQII | 7
KHFYWFFSNYLKRRV [SEQ ID NO 244] | 8
IAATRGATVVIGTSK | 6

Same assay, conditions: CD4+ T cell epitopes identified by AIM assay; sum of response per responding donor

Sequence | Magnitude by # of responding donors
LIRQGTDYKHWPQIA | 216
ARDLICAQKFNGLTV | 232
SASFSTFKCYGVSPT | 294
FSNSGSDVLYQPPQT | 149
PLIELCVDEAGSKSP | 171
NVLFSTVFPPTSFGP | 109
TNSRIKASMPTTIAK | 360
LGRCDIKDLPKEITV | 313
IGNYTVSCLPFTINC | 245
VTQNVLYENQKLIAN | 353
SNFRVQPTESIVRFP | 243
KLNDLCFTNVYADSF | 130
VIRGDEVRQIAPGQT | 180
SIVAGGIVAIVVTCL | 109
RVAGDSGFAAYSRYR | 139
VWHVNNATNKATYKP | 158
TQAFGRRGPEQTQGN | 151
GGDGKMKDLSPRWYF | 148
QDALFAYTKRNVIPT | 132

Sequence | Magnitude by # of responding donors
LMDLEGKQGNFKNLR | 347
QEPKLGSLVVRCSFY | 124
SLLIVNNATNVVIKV | 164
EHVTFFIYNKIVDEP | 139
QELGKYEQYIKWPWY | 768
AENSVAYSNNSIAIP | 403
CTFEYVSQPFLMDLE | 619
TVTLLPAADLDDFSK | 648
YRINWITGGIAIAMA | 345
EFVFKNIDGYFKIYS | 336
PVYSFLPGVYSVIYL | 650
LPQGFSALEPLVDLP | 418
GKGQQQQGQTVTKKS | 318
LPPLLTDEMIAQYTS | 153
RYLALYNKYKYFSGA | 708
NTVKSVGKFCLEASF | 113
RFYFYTSKTTVASLI | 126
KNTQEVFAQVKQIYK | 125
GINASVVNIQKEIDR | 267

Sequence | Magnitude by # of responding donors
TITSGWTFGAGAALQ | 164
YPKCDRAMPNMLRIM | 153
VTKNSKVQIGEYTFE | 118
GSLVVRCSFYEDFLE | 231
AIKLDDKDPNFKDQV | 585
GAVILRGHLRIAGHH | 512
SIAIPTNFTISVTTE | 274
PQNQRNAPRITFGGP | 222
RPLLESELVIGAVIL | 183
YDANYFLCWHTNCYD | 209
YLTFYLTNDVSFLAH | 358
TRRIRGGDGKMKDLS | 151
FVSLAIDAYPLTKHP | 115
WPQIAQFAPSASAFF | 376
LLFNKVTLADAGFIK | 297
IQYIDIGNYTVSCLP | 1805
HWFVTQRNFYEPQII | 598
KHFYWFFSNYLKRRV [SEQ ID NO 244] | 959
IAATRGATVVIGTSK | 117

Same assay, conditions: CD4+ T cell epitopes identified by AIM assay; total response

Sequence | Sum of response
LIRQGTDYKHWPQIA | 431
ARDLICAQKFNGLTV | 232
SASFSTFKCYGVSPT | 294
FSNSGSDVLYQPPQT | 149
PLIELCVDEAGSKSP | 341
NVLFSTVFPPTSFGP | 109
TNSRIKASMPTTIAK | 360
LGRCDIKDLPKEITV | 938
IGNYTVSCLPFTINC | 1223
VTQNVLYENQKLIAN | 705
KLNDLCFTNVYADSF | 130
VIRGDEVRQIAPGQT | 180
SIVAGGIVAIVVTCL | 109
RVAGDSGFAAYSRYR | 278
VWHVNNATNKATYKP | 158
TQAFGRRGPEQTQGN | 151
GGDGKMKDLSPRWYF | 295
QDALFAYTKRNVIPT | 132
LMDLEGKQGNFKNLR | 1386
QEPKLGSLVVRCSFY | 124
EHVTFFIYNKIVDEP | 277
QELGKYEQYIKWPWY | 768
AENSVAYSNNSIAIP | 805
TVTLLPAADLDDFSK | 648
YRINWITGGIAIAMA | 2417
EFVFKNIDGYFKIYS | 672
PVYSFLPGVYSVIYL | 650

Sequence | Sum of response
LPQGFSALEPLVDLP | 836
GKGQQQQGQTVTKKS | 318
LPPLLTDEMIAQYTS | 153
RYLALYNKYKYFSGA | 1415
NTVKSVGKFCLEASF | 113
RFYFYTSKTTVASLI | 126
KNTQEVFAQVKQIYK | 125
TITSGWTFGAGAALQ | 164
YPKCDRAMPNMLRIM | 153
VTKNSKVQIGEYTFE | 118
GSLVVRCSFYEDFLE | 694
AIKLDDKDPNFKDQV | 585
GAVILRGHLRIAGHH | 512
SIAIPTNFTISVTTE | 274
PQNQRNAPRITFGGP | 222
RPLLESELVIGAVIL | 183
YDANYFLCWHTNCYD | 209
YLTFYLTNDVSFLAH | 715
TRRIRGGDGKMKDLS | 151
FVSLAIDAYPLTKHP | 230
WPQIAQFAPSASAFF | 1503
LLFNKVTLADAGFIK | 297
IQYIDIGNYTVSCLP | 1805
HWFVTQRNFYEPQII | 598
KHFYWFFSNYLKRRV [SEQ ID NO 244] | 959
IAATRGATVVIGTSK | 117

Same assay, conditions: CD4+ T cell epitopes identified by AIM assay; total response summed over donors

Sequence | Sum of response
SNFRVQPTESIVRFP | 243
SLLIVNNATNVVIKV | 164
CTFEYVSQPFLMDLE | 4332
GINASVVNIQKEIDR | 267
